# From patent publication US20220016101A1 (ACADIA Pharmaceuticals Inc., priority 2018, published 2022)
# Test system: patients with MDD and an inadequate response to an SSRI or SNRI
# Assay: Massachusetts General Hospital Sexual Functioning Index (MGH-SFI), Study ACP-103-042
# Type: in vivo, human
# Parameters: key to MGH-SFI Ability to Get Sexually Aroused or Excited, treatment effect size / MGH-SFI Ability to Achieve Orgasm, treatment effect size / MGH-SFI Overall Sexual Satisfaction, treatment effect size: Cohen's d = LS mean difference (PIM vs PBO) / SD
# Excerpt: “Massachusetts General Hospital Sexual Functioning Index (MGH-SFI)” is described, for instance, in Labbate and Lare, 2001, Psychother Psychosom. 70(4):221-225. This is a patient facing questionnaire that quantifies sexual dysfunction into 5 functional domains (“interest in sex,” “sexual arousal,” “ability to achieve orgasm,” “ability to maintain erection” (males only), and “sexual satisfaction”). Patients rate each item using a 6-point scale ranging from 1 (good function) to 6 (poor function). High scores indicate poor sexual functioning. […] The determination of the subject's status and eligibility for randomization in Stage 2 was made in a double-blind manner. […] Sexual functioning was assessed using the Massachusetts General Hospital Sexual Functioning Index or MGH-SFI (Labbate and Lare, 2001, Psychother Psychosom. 70(4):221-225). This is a patient facing questionnaire that quantifies sexual dysfunction into 5 functional domains (“interest in sex,” “sexual arousal,” “ability to achieve orgasm,” “ability to maintain erection” [malesonly], and “sexual satisfaction”). Patients rate each item using a 6-point scale ranging from 1 (good function) to 6 (poor function). The time frame for this scale is the past month. This scale was administered at baseline and Week 5 in both stages of the study. High scores indicate poor sexual functioning. In ACP-103-042 the mean scores for MGH-SFI at Baseline was calculated over all 5 domains for males and the 4 domains for females. For MGH-SFI (follow-up version) at Study Weeks 5 and 10, the mean was calculated in the same way as MGH-SFI at Baseline. […] Tables 10-27 summarize the detailed data of MGH-SFI individual items of the overall study group (Tables 10-15), the subgroup of age of <=50 (Tables 16-21) and the subgroup of age of >50 (Table 21-26). In Tables 9-26, ANCOVA=analysis of covariance; OC=observed cases; LSM=least squares mean; CI=confidence interval; SD=standard deviation; SE=standard error. Stage 1: Baseline=Study Week 0, Week 5=Study Week 5; Stage 2: Baseline=Study Week 5, Week 5=Study Weeks 10. LSM from the stage-specific ANCOVA analysis with the change from baseline as the outcome, treatment group as a factor, and the corresponding Baseline value as a covariate. 2-sided p-value for treatment difference from the stage-specific ANCOVA analysis. An treatment effect size (Cohen's d) is calculated using the formula: Effect Size=Least Square mean difference between PIM and PBO/SD. The corresponding 95% confidence interval for an effect size is calculated based on the theoretical probability distribution of the effect size. […] Tables 10-15 and 28-38 summarize the detailed data of MGH-SFI individual items of the overall study group (Tables 10-15), the female subgroup (Tables 33-37) and the male subgroup (Table 38-43). An treatment effect size (Cohen's d) is calculated using the formula: Effect Size=Least Square mean difference between PIM and PBO/SD. The corresponding 95% confidence interval for an effect size is calculated based on the theoretical probability distribution of the effect size. In Tables 10-15 and 28-38, ANCOVA=analysis of covariance; OC=observed cases; LSM=least squares mean; CI=confidence interval; SD=standard deviation; SE=standard error. Stage 1: Baseline=Study Week 0, Week 5=Study Week 5; Stage 2: Baseline=Study Week 5, Week 5=Study Weeks 10. LSM from the stage-specific ANCOVA analysis with the change from baseline as the outcome, treatment group as a factor, and the corresponding Baseline value as a covariate. 2-sided p-value for treatment difference from the stage-specific ANCOVA analysis. An treatment effect size (Cohen's d) is calculated using the formula: Effect Size=Least Square mean difference between PIM and PBO/SD. The corresponding 95% confidence interval for an effect size is calculated based on the theoretical probability distribution of the effect size.
# [1] = Stage 1, Overall Study Group, 34 mg QD + SSRI/SNRI
# [2] = Stage 1, Subgroup of <=50 Years
# [3] = Stage 1, Subgroup of <=50 Years Old
# [4] = Stage 1, Subgroup of <=50 Years Old, 34 mg QD + SSRI/SNRI
smiles,measurement,setting,value
"CC(C)COc1ccc(CNC(=O)N(Cc2ccc(F)cc2)C2CCN(C)CC2)cc1 [pimavanserin, N-(4-Fluorophenylmethyl)-N-(1-methylpiperidin-4-yl)-N′-(4-(2-methylpropyloxy)phenylmethyl)carbamide]",MGH-SFI Items mean change stratified by age >50 or ≤50 years vs placebo,Stage 1,differences were only significant for the age >50 years subgroup
same,MGH-SFI treatment effect size for pimavanserin compared to placebo,Stage 1,0.614
same,"MGH-SFI 01: Interest in Sex, Change from Baseline to Week 5 Mean (SE)","Stage 1, Overall Study Group",−0.9 (0.23)
same,"MGH-SFI 01: Interest in Sex, Change from Baseline to Week 5 Median","Stage 1, Overall Study Group",−1.0
same,"MGH-SFI 01: Interest in Sex, Effect Size (Cohen's d)","Stage 1, Overall Study Group",0.483
same,"MGH-SFI 01: Interest in Sex, Week 5 Median","Stage 1, Overall Study Group",4.0
same,"MGH-SFI 02: Ability to Get Sexually Aroused or Excited, Change from Baseline to Week 5 Mean (SE)","Stage 1, Overall Study Group",−0.8 (0.17)
same,"MGH-SFI 02: Ability to Get Sexually Aroused or Excited, Change from Baseline to Week 5 Median","Stage 1, Overall Study Group",−1.0
same,"MGH-SFI 02: Ability to Get Sexually Aroused or Excited, Effect Size (Cohen's d)","Stage 1, Overall Study Group",0.560
same,"MGH-SFI 02: Ability to Get Sexually Aroused or Excited, Week 5 Median","Stage 1, Overall Study Group",4.0
same,"MGH-SFI 03: Ability to Achieve Orgasm, Change from Baseline to Week 5 Mean (SE)","Stage 1, Overall Study Group",−1.0 (0.24)
same,"MGH-SFI 03: Ability to Achieve Orgasm, Change from Baseline to Week 5 Median","Stage 1, Overall Study Group",0.0
same,"MGH-SFI 03: Ability to Achieve Orgasm, Effect Size (Cohen's d)","Stage 1, Overall Study Group",0.609
same,"MGH-SFI 03: Ability to Achieve Orgasm, Week 5 Median","Stage 1, Overall Study Group",4.0
same,"MGH-SFI 04: (Men) Ability to Get and Maintain an Erection, Change from Baseline to Week 5 Mean (SE)","Stage 1, Overall Study Group",−0.3 (0.78)
same,"MGH-SFI 04: (Men) Ability to Get and Maintain an Erection, Change from Baseline to Week 5 Median","Stage 1, Overall Study Group",0.0
same,"MGH-SFI 04: (Men) Ability to Get and Maintain an Erection, Effect Size (Cohen's d)","Stage 1, Overall Study Group",0.105
same,"MGH-SFI 04: (Men) Ability to Get and Maintain an Erection, Week 5 Median","Stage 1, Overall Study Group",3.0
same,"MGH-SFI 05: Overall Sexual Satisfaction, Change from Baseline to Week 5 Mean (SE)","Stage 1, Overall Study Group",−0.8 (0.25)
same,"MGH-SFI 05: Overall Sexual Satisfaction, Change from Baseline to Week 5 Median","Stage 1, Overall Study Group",0.0
same,"MGH-SFI 05: Overall Sexual Satisfaction, Effect Size (Cohen's d)","Stage 1, Overall Study Group",0.524
same,"MGH-SFI 05: Overall Sexual Satisfaction, Week 5 Median","Stage 1, Overall Study Group",4.0
same,"MGH-SFI 06: Overall Improvement Since Last Medication Change, Effect Size (Cohen's d)","Stage 1, Overall Study Group",0.539
same,"MGH-SFI 06: Overall Improvement Since Last Medication Change, Week 5 Median","Stage 1, Overall Study Group",4.0
same,"MGH-SFI 01: Interest in Sex, Week 5 Mean (SE)",[1],3.8 (0.27)
same,"MGH-SFI 02: Ability to Get Sexually Aroused or Excited, Week 5 Mean (SE)",[1],3.7 (0.26)
same,"MGH-SFI 03: Ability to Achieve Orgasm, Week 5 Mean (SE)",[1],3.8 (0.26)
same,"MGH-SFI 04: (Men) Ability to Get and Maintain an Erection, Week 5 Mean (SE)",[1],3.9 (0.70)
same,"MGH-SFI 05: Overall Sexual Satisfaction, Week 5 Mean (SE)",[1],3.9 (0.27)
same,"MGH-SFI 06: Overall Improvement Since Last Medication Change, Week 5 Mean (SE)",[1],3.2 (0.17)
same,"MGH-SFI 01: Interest in Sex, Change from Baseline to Week 5 Mean (SE)",[2],−0.7 (0.45)
same,"MGH-SFI 01: Interest in Sex, Change from Baseline to Week 5 Median",[2],0.0
same,"MGH-SFI 01: Interest in Sex, Effect Size (Cohen's d)",[2],0.347
same,"MGH-SFI 01: Interest in Sex, Week 5 Median",[2],3.0
same,"MGH-SFI 02: Ability to Get Sexually Aroused or Excited, Change from Baseline to Week 5 Mean (SE)",[3],−0.5 (0.27)
same,"MGH-SFI 02: Ability to Get Sexually Aroused or Excited, Change from Baseline to Week 5 Median",[3],0.0
same,"MGH-SFI 02: Ability to Get Sexually Aroused or Excited, Effect Size (Cohen's d)",[3],0.447
same,"MGH-SFI 02: Ability to Get Sexually Aroused or Excited, Week 5 Median",[3],3.0
same,"MGH-SFI 03: Ability to Achieve Orgasm, Change from Baseline to Week 5 Mean (SE)",[3],−0.8 (0.36)
same,"MGH-SFI 03: Ability to Achieve Orgasm, Change from Baseline to Week 5 Median",[3],0.0
same,"MGH-SFI 03: Ability to Achieve Orgasm, Effect Size (Cohen's d)",[3],0.352
same,"MGH-SFI 03: Ability to Achieve Orgasm, Week 5 Median",[3],4.0
same,"MGH-SFI 02: Ability to Get Sexually Aroused or Excited, Week 5 Mean (SE)",[4],3.4 (0.42)
same,"MGH-SFI 03: Ability to Achieve Orgasm, Week 5 Mean (SE)",[4],3.8 (0.42)
same,"MGH-SFI 01: Interest in Sex, Week 5 Mean (SE)","Stage 1, Subgroup of <=50 Years, 34 mg QD + SSRI/SNRI",3.5 (0.45)
same,"MGH-SFI Ability to Achieve Orgasm, treatment effect size","Stage 1, female subgroup",0.749
same,"MGH-SFI Ability to Get Sexually Aroused or Excited, treatment effect size","Stage 1, female subgroup",0.616
same,"MGH-SFI Interest in Sex, treatment effect size","Stage 1, female subgroup",0.561
same,"MGH-SFI Overall Improvement Since Last Medication Change, treatment effect size","Stage 1, female subgroup",0.634
same,"MGH-SFI Overall Sexual Satisfaction, treatment effect size","Stage 1, female subgroup",0.627
same,MGH-SFI effects vs placebo when assessed by MDD remission status,"Stage 1, patients with or without remission",robust and significant effects
same,MGH-SFI treatment effect size for pimavanserin compared to placebo,Stage 2,0.412
same,"MGH-SFI 01: Interest in Sex, Change from Baseline to Week 5 Mean (SE)","Stage 2, Overall Study Group",−0.4 (0.16)
same,"MGH-SFI 01: Interest in Sex, Change from Baseline to Week 5 Median","Stage 2, Overall Study Group",0.0
same,"MGH-SFI 01: Interest in Sex, Effect Size (Cohen's d)","Stage 2, Overall Study Group",0.227
same,"MGH-SFI 01: Interest in Sex, Week 5 Median","Stage 2, Overall Study Group",4.0
same,"MGH-SFI 02: Ability to Get Sexually Aroused or Excited, Change from Baseline to Week 5 Mean (SE)","Stage 2, Overall Study Group",−0.4 (0.16)
same,"MGH-SFI 02: Ability to Get Sexually Aroused or Excited, Change from Baseline to Week 5 Median","Stage 2, Overall Study Group",0.0
same,"MGH-SFI 02: Ability to Get Sexually Aroused or Excited, Effect Size (Cohen's d)","Stage 2, Overall Study Group",−0.025
same,"MGH-SFI 02: Ability to Get Sexually Aroused or Excited, Week 5 Median","Stage 2, Overall Study Group",4.5
same,"MGH-SFI 03: Ability to Achieve Orgasm, Change from Baseline to Week 5 Mean (SE)","Stage 2, Overall Study Group",−0.4 (0.18)
same,"MGH-SFI 03: Ability to Achieve Orgasm, Change from Baseline to Week 5 Median","Stage 2, Overall Study Group",0.0
same,"MGH-SFI 03: Ability to Achieve Orgasm, Effect Size (Cohen's d)","Stage 2, Overall Study Group",0.300
same,"MGH-SFI 03: Ability to Achieve Orgasm, Week 5 Median","Stage 2, Overall Study Group",5.0
same,"MGH-SFI 04: (Men) Ability to Get and Maintain an Erection, Change from Baseline to Week 5 Mean (SE)","Stage 2, Overall Study Group",−1.0 (0.41)
same,"MGH-SFI 04: (Men) Ability to Get and Maintain an Erection, Change from Baseline to Week 5 Median","Stage 2, Overall Study Group",−1.0
same,"MGH-SFI 04: (Men) Ability to Get and Maintain an Erection, Effect Size (Cohen's d)","Stage 2, Overall Study Group",0.701
same,"MGH-SFI 04: (Men) Ability to Get and Maintain an Erection, Week 5 Median","Stage 2, Overall Study Group",4.0
same,"MGH-SFI 05: Overall Sexual Satisfaction, Change from Baseline to Week 5 Mean (SE)","Stage 2, Overall Study Group",−0.7 (0.25)
same,"MGH-SFI 05: Overall Sexual Satisfaction, Change from Baseline to Week 5 Median","Stage 2, Overall Study Group",−0.5
